PubChem BioAssay AID330 (DTP/NCI, 2004)
Values joined by “and” are separate entries in the source; they are usually repeats but may differ in a detail not shown here. Equal entries are not always repeated. Toxic doses and inconclusive results are not listed.

System: P388 leukemia ip, CD2F1 mice, survival T/C
Assay: NCI In Vivo Anticancer Drug Screen. Data for tumor model P388 Leukemia (intraperitoneal) in CD2F1 (CDF1) mice
Conditions: endpoint: median survival time, higher = longer survival
Summary of the method: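 Mice carrying the transplanted tumor received test compound or vehicle. Survival was recorded in each group, and the value is the treated-group measurement divided by that of the vehicle-treated control group.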

[1] = dose: 50.0 mg/kg/injection, schedule: Q01DX009 (ip), vehicle: Klucel (hydroxypropylcellulose) (HPC)
[2] = dose: 100.0 mg/kg/injection, schedule: Q01DX009 (ip), vehicle: Klucel (hydroxypropylcellulose) (HPC)
[3] = dose: 50.0 mg/kg/injection, schedule: Q01DX009 (ip), vehicle: saline with Tween-80
[4] = dose: 100.0 mg/kg/injection, schedule: Q01DX009 (ip), vehicle: saline with Tween-80
[5] = dose: 200.0 mg/kg/injection, schedule: Q01DX009 (ip), vehicle: saline with Tween-80
[6] = dose: 50.0 mg/kg/injection, schedule: Q01DX009 (ip), vehicle: saline
[7] = dose: 200.0 mg/kg/injection, schedule: Q01DX009 (ip), vehicle: Klucel (hydroxypropylcellulose) (HPC)

For `C=CC(C)(O)/C=C/C=C(\C)C(CC1OC1(C)C)OC(=O)/C(C)=C\C` (configuration not stated), the T/C [1] was 95 % of control and the T/C [2] was 107 % of control.
`CN1C(=S)C(=N)OC1c1ccc(Cl)cc1Cl` (configuration not stated) was tested, and the T/C (dose: 60.0 mg/kg/injection, schedule: Q01DX005 (ip), vehicle: Klucel + Tween-80) was 102 % of control, the T/C (dose: 120.0 mg/kg/injection, schedule: Q01DX005 (ip), vehicle: Klucel + Tween-80) was 94 % of control and the T/C (dose: 240.0 mg/kg/injection, schedule: Q01DX005 (ip), vehicle: Klucel + Tween-80) was 96 % of control.
For `CCCCOCCOS(=O)(=O)c1ccc(C)cc1`, the T/C [3] was 92 % of control, the T/C [4] was 96 % of control and the T/C [5] was 106 % of control.
With `c1ccc(C2SC3=NCCCN3Cc3ccccc32)cc1` (configuration not stated) the T/C (dose: 12.5 mg/kg/injection, schedule: Q01DX009 (ip), vehicle: saline) was 104 % of control, the T/C (dose: 25.0 mg/kg/injection, schedule: Q01DX009 (ip), vehicle: saline) was 109 % of control and the T/C [6] was 104 % of control and 97 % of control.
In the case of `COc1cc(C2(c3ccc(O)c(OC)c3)CCCCC2)ccc1O`, the T/C [1] is reported as 100 % of control, the T/C [2] is reported as 100 % of control and the T/C [7] is reported as 100 % of control.
In the case of `COCC1(C)CCCC2(C)C3=C(CCC(=O)C3)CCC12` (configuration not stated), the T/C (dose: 100.0 mg/kg/injection, schedule: Q04DX003 (ip), vehicle: Klucel (hydroxypropylcellulose) (HPC)) is reported as 99 % of control, the T/C (dose: 200.0 mg/kg/injection, schedule: Q04DX003 (ip), vehicle: Klucel (hydroxypropylcellulose) (HPC)) is reported as 101 % of control and the T/C (dose: 400.0 mg/kg/injection, schedule: Q04DX003 (ip), vehicle: Klucel (hydroxypropylcellulose) (HPC)) is reported as 96 % of control.
With `N=C(N)c1ccc(NC(=O)c2ccc(C(=O)Nc3ccc(C(=N)N)cc3)c(N)c2)cc1` the T/C (dose: 50.0 mg/kg/injection, schedule: Q01DX005 (ip), vehicle: saline with Tween-80) was 110 % of control, the T/C (dose: 100.0 mg/kg/injection, schedule: Q01DX005 (ip), vehicle: saline with Tween-80) was 107 % of control and the T/C (dose: 200.0 mg/kg/injection, schedule: Q01DX005 (ip), vehicle: saline with Tween-80) was 87 % of control.
`Cc1cc(Br)c2c(c1N)C(=O)c1ccccc1C2=O` was tested, and the T/C [1] was 99 % of control, the T/C [2] was 107 % of control and the T/C [7] was 102 % of control.
In the case of `NOCc1cccc([N+](=O)[O-])c1`, the T/C [6] is reported as 104 % of control, the T/C (dose: 100.0 mg/kg/injection, schedule: Q01DX009 (ip), vehicle: saline) is reported as 95 % of control and the T/C (dose: 200.0 mg/kg/injection, schedule: Q01DX009 (ip), vehicle: saline) is reported as 100 % of control.
With `N#CC(OC(=O)c1cccc(C(=O)OC(C#N)(C(F)(F)F)C(F)(F)F)c1Sc1ccccc1)(C(F)(F)F)C(F)(F)F` the T/C (dose: 100.0 mg/kg/injection, schedule: Q04DX002 (ip), vehicle: Klucel (hydroxypropylcellulose) (HPC)) was 109 % of control and the T/C (dose: 400.0 mg/kg/injection, schedule: Q04DX002 (ip), vehicle: Klucel (hydroxypropylcellulose) (HPC)) was 115 % of control.
In the case of `CC(C)=CCc1cc(O)c(C)cc1O`, the T/C (dose: 12.5 mg/kg/injection, schedule: Q01DX009 (ip), vehicle: distilled water + Tween-80 + alcohol) is reported as 99 % of control and the T/C (dose: 25.0 mg/kg/injection, schedule: Q01DX009 (ip), vehicle: distilled water + Tween-80 + alcohol) is reported as 91 % of control.
For `C=CCCCC(=O)CCCCBr`, the T/C [3] was 122 % of control, the T/C [4] was 108 % of control and the T/C [5] was 110 % of control.
For `COc1cc2c(c(OC)c1OC)-c1ccc(SC)c(=O)cc1[C@@H](NC(=O)Oc1ccccc1)CC2`, the T/C (dose: 5.0 mg/kg/injection, schedule: Q01DX009 (ip), vehicle: Klucel (hydroxypropylcellulose) (HPC)) was 164 % of control.
For `O=Nc1c2ccccc2c(NO)c2ccccc12`, the T/C (dose: 100.0 mg/kg/injection, schedule: Q04DX002 (ip), vehicle: saline with Tween-80) was 94 % of control, the T/C (dose: 200.0 mg/kg/injection, schedule: Q04DX002 (ip), vehicle: saline with Tween-80) was 92 % of control and the T/C (dose: 400.0 mg/kg/injection, schedule: Q04DX002 (ip), vehicle: saline with Tween-80) was 98 % of control.
